Test results published in publication PMC12564265, “Navigating the Deep Eutectic Solvent Landscape: Experimental and Machine Learning Solubility Explorations of Syringic, p-Coumaric, and Caffeic Acids” (International Journal of Molecular Sciences, 2025).

Columns and labels:
[1] = Shake-flask solubility with spectrophotometric measurement in neat deep eutectic solvents; format: physicochemical
Description: (§1) In order to determine the solubility of the three studied phenolic acids in deep eutectic solvents, a very well-established shake-flask method coupled with spectrophotometric measurements was utilized. The initial procedure involved the preparation of various DESs, which was conducted by mixing their HBA and HBD counterparts in a glass vessel and heating the composition until the formation of a transparent, uniform liquid. […] For additional measurements, the DESs were mixed with water in varying proportions, creating aqueous DES systems. Saturated solutions of CAF, SYR, and COU were obtained by adding excess amounts of these compounds to test tubes containing either a neat deep eutectic solvent or its aqueous solution. Such samples were placed in the Orbital Shaker Incubator ES-20/60 from Biosan (Riga, Latvia) and heated for 24 h at 25 °C, 30 °C, 35 °C, and 40 °C (±0.1 °C) with simultaneous mixing at 60 rpm. Before measurements, the samples were filtered using a PTFE syringe filter from Qpore (Dallas, TX, USA) with a 0.22 μm pore size. In order to avoid possible precipitation of the saturated solutions at decreased temperatures, the test tubes, syringes, pipette tips, and filters were kept at a temperature identical to that of the samples. The spectrophotometric measurements required the preparation of calibration curves for the three APIs. This involved the preparation of a stock solution of each compound in methanol, which was later successfully diluted, and the obtained solutions of varying concentrations were measured using an A360 spectrophotometer from AOE Instruments (Shanghai, China). The wavelength range was set to 200-500 nm, and the resolution was 1 nm. The analytical wavelengths were determined to be 324 nm for caffeic acid, 273 nm for syringic acid, and 308 nm for p-coumaric acid. The final regression equations, obtained after averaging three distinct sets of measurements, are collected in Table 2 together with determination coefficients and limits of detection (LOD) and quantification (LOQ) for the calibration curves. The measurements of the samples were conducted with the same spectrophotometer and identical settings. Methanol was used for the dilution of the samples so that they could remain within the linearity range of the method. Complete spectra of the samples were recorded, but for the solubility determination, the absorbance values at a specific analytical wavelength were considered. These values were combined with the corresponding regression equations of the calibration curves and served for the calculation of the concentration of the three phenolic acids in the studied samples. The densities of such samples were also measured, and for this task 1 mL of each sample was weighed to a precision of 0.1 mg using an AS 110 R2.PLUS analytical balance from […] (Radom, Poland). The obtained densities enabled the calculation of mole fractions of CAF, SYR, and COU dissolved in the studied DESs. For each considered system, three distinct measurements were conducted, and the results were averaged.

[2] = Shake-flask solubility with spectrophotometric measurement in aqueous DES mixtures; format: physicochemical; details: Bet – TEG 1:2 + water
Description: as §1

COc1cc(C(=O)O)cc(OC)c1O [syringic acid, 4-hydroxy-3,5-dimethoxybenzoic acid]
Mole fraction solubility ([1]; neat DES Bet - DEG, HBA:HBD molar ratio 1:1, 25 °C): 0.0235±0.0003 mole fraction
Mole fraction solubility ([1]; neat DES Bet - DEG, HBA:HBD molar ratio 1:2, 25 °C): 0.0311±0.0002 mole fraction
Mole fraction solubility ([1]; neat DES Bet - DEG, HBA:HBD molar ratio 1:4, 25 °C): 0.0283±0.0003 mole fraction
Mole fraction solubility ([1]; neat DES Bet - ETG, HBA:HBD molar ratio 1:1, 25 °C): 0.0132±0.0001 mole fraction
Mole fraction solubility ([1]; neat DES Bet - ETG, HBA:HBD molar ratio 1:2, 25 °C): 0.0274±0.0002 mole fraction
Mole fraction solubility ([1]; neat DES Bet - ETG, HBA:HBD molar ratio 1:4, 25 °C): 0.0205±0.0002 mole fraction
Mole fraction solubility ([1]; neat DES Bet - GLY, HBA:HBD molar ratio 1:1, 25 °C): 0.0203±0.0002 mole fraction
Mole fraction solubility ([1]; neat DES Bet - GLY, HBA:HBD molar ratio 1:2, 25 °C): 0.0358±0.0003 mole fraction
Mole fraction solubility ([1]; neat DES Bet - GLY, HBA:HBD molar ratio 1:4, 25 °C): 0.0300±0.0002 mole fraction
Mole fraction solubility ([1]; neat DES Bet - TEG, HBA:HBD molar ratio 1:1, 25 °C): 0.0317±0.0003 mole fraction
Mole fraction solubility ([1]; neat DES Bet - TEG, HBA:HBD molar ratio 1:2, 25 °C): 0.0474 mole fraction
Mole fraction solubility ([1]; neat DES Bet - TEG, HBA:HBD molar ratio 1:2, 25 °C, listed as syryngic acid): 0.0474±0.0003 mole fraction
Mole fraction solubility ([1]; neat DES Bet - TEG, HBA:HBD molar ratio 1:4, 25 °C): 0.0388±0.0003 mole fraction
Mole fraction solubility ([1]; neat DES ChCl - DEG, HBA:HBD molar ratio 1:1, 25 °C): 0.0230±0.0004 mole fraction
Mole fraction solubility ([1]; neat DES ChCl - DEG, HBA:HBD molar ratio 1:2, 25 °C): 0.0465±0.0004 mole fraction
Mole fraction solubility ([1]; neat DES ChCl - ETG, HBA:HBD molar ratio 1:1, 25 °C): 0.0186±0.0002 mole fraction
Mole fraction solubility ([1]; neat DES ChCl - ETG, HBA:HBD molar ratio 1:2, 25 °C): 0.0304±0.0002 mole fraction
Mole fraction solubility ([1]; neat DES ChCl - ETG, HBA:HBD molar ratio 1:4, 25 °C): 0.0244±0.0002 mole fraction
Mole fraction solubility ([1]; neat DES ChCl - TEG, HBA:HBD molar ratio 1:2, 25 °C): 0.0515 mole fraction
Mole fraction solubility ([2]; x*DES 0.1, 25°C): 0.0042±0.0001 mole fraction
Mole fraction solubility ([2]; x*DES 0.1, 30°C): 0.0046±0.0001 mole fraction
Mole fraction solubility ([2]; x*DES 0.1, 35°C): 0.0057±0.0001 mole fraction
Mole fraction solubility ([2]; x*DES 0.1, 40°C): 0.0067±0.0001 mole fraction
Mole fraction solubility ([2]; x*DES 0.2, 25°C): 0.0093±0.0001 mole fraction
Mole fraction solubility ([2]; x*DES 0.2, 30°C): 0.0105±0.0001 mole fraction
Mole fraction solubility ([2]; x*DES 0.2, 35°C): 0.0127±0.0001 mole fraction
Mole fraction solubility ([2]; x*DES 0.2, 40°C): 0.0148±0.0002 mole fraction
Mole fraction solubility ([2]; x*DES 0.3, 25°C): 0.0153±0.0001 mole fraction
Mole fraction solubility ([2]; x*DES 0.3, 30°C): 0.0173±0.0001 mole fraction
Mole fraction solubility ([2]; x*DES 0.3, 35°C): 0.0207±0.0002 mole fraction
Mole fraction solubility ([2]; x*DES 0.3, 40°C): 0.0239±0.0002 mole fraction
Mole fraction solubility ([2]; x*DES 0.4, 25°C): 0.0214±0.0002 mole fraction
Mole fraction solubility ([2]; x*DES 0.4, 30°C): 0.0247±0.0001 mole fraction
Mole fraction solubility ([2]; x*DES 0.4, 35°C): 0.0290±0.0002 mole fraction
Mole fraction solubility ([2]; x*DES 0.4, 40°C): 0.0341±0.0003 mole fraction
Mole fraction solubility ([2]; x*DES 0.5, 25°C): 0.0284±0.0002 mole fraction
Mole fraction solubility ([2]; x*DES 0.5, 30°C): 0.0318±0.0002 mole fraction
Mole fraction solubility ([2]; x*DES 0.5, 35°C): 0.0386±0.0002 mole fraction
Mole fraction solubility ([2]; x*DES 0.5, 40°C): 0.0457±0.0003 mole fraction
Mole fraction solubility ([2]; x*DES 0.6, 25°C): 0.0351±0.0003 mole fraction
Mole fraction solubility ([2]; x*DES 0.6, 30°C): 0.0396±0.0003 mole fraction
Mole fraction solubility ([2]; x*DES 0.6, 35°C): 0.0475±0.0009 mole fraction
Mole fraction solubility ([2]; x*DES 0.6, 40°C): 0.0568±0.0006 mole fraction
Mole fraction solubility ([2]; x*DES 0.7, 25°C): 0.0425±0.0003 mole fraction
Mole fraction solubility ([2]; x*DES 0.7, 30°C): 0.0483±0.0005 mole fraction
Mole fraction solubility ([2]; x*DES 0.7, 35°C): 0.0579±0.0010 mole fraction
Mole fraction solubility ([2]; x*DES 0.7, 40°C): 0.0702±0.0004 mole fraction
Mole fraction solubility ([2]; x*DES 0.8, 30°C): 0.0558±0.0006 mole fraction
Mole fraction solubility ([2]; x*DES 0.8, 35°C): 0.0673±0.0015 mole fraction
Mole fraction solubility ([2]; x*DES 0.8, 40°C): 0.0790±0.0009 mole fraction
Mole fraction solubility ([2]; x*DES 0.9, 25°C): 0.0488 mole fraction
Mole fraction solubility ([2]; x*DES 0.9, 25°C, listed as syryngic acid): 0.0488±0.0004 mole fraction
